This experiment deals with Cy5-labelled Mcl1 (amino acids 171-321) C286S protein (UniProtKB Q07820) (Homo sapiens (Human), UniProt Q07820, C286S). Briefly: Inhibition of Mcl-1 by the fluorescence quenching assay (Example A, Method B). The experiment is classed as binding. The text has this: Fluorescence quenching assay measures the change fluorescence intensity of C-terminally Cy5-labelled Mcl1 (amino acids 171-321) C286S protein (UniProtKB® primary accession number Q07820) having an amino acid sequence:
which is linked at the C-terminus to the amino acid X which corresponds to a cysteine labelled on the sulfur with sulpho-Cyanine5 from Lumiprobe GmbH catalogue number 13380, upon binding of a C-terminally labelled peptide derived from PUMA (UniProtKB® primary accession number Q9BXH1) having an amino acid sequence:
which is linked at the C-terminus to the amino acid X′, where X′ is cysteine labelled on the sulfur with TQ5WS from AAT Bioquest catalogue number 2079.
The addition of a compound which binds competitively to the same site as the peptide will result in an increase in the fluorescence intensity of the protein due to displacement of the fluorescence quencher.
An 11-point serial dilution of each compound was prepared in DMSO, the final buffer conditions were 10 mM 4-(2-hydroxyethyl)-1-piperazineethanesulfonic acid [HEPES], 150 mM NaCl, 0.05% Tween 20, pH 7.4 and 5% DMSO. The final protein concentration in the assay was 1 nM with the peptide present at 10, 20 or 400 nM. The experiments were incubated for 2 hours at room temperature before fluorescence intensity was measured on a Biotek SynergyNeo plate reader (Excitation 620 nm, emission 680 nm). The dose response curves were plotted with XL-Fit software using a 4-Parameter Logistic Model (Sigmoidal DoseResponse Model) and the inhibitory concentrations that gave a 50% increase in fluorescence intensity was determined (IC50). The Ki values were determined from the IC50 values according to Cer et al, Nucleic Acids Res, 2009, 37 (WebServer issue): W441-W445. Inhibition constants (Ki) are determined from complete binding inhibition curves (cKi) or from estimated from incomplete binding inhibition curves (eKi) in most cases due to low activity.

This passage reports Ki and inhibition results from patent publication US20240150293A1, “SPIROCYCLOHEXANE DERIVATIVES, PHARMACEUTICAL COMPOSITIONS CONTAINING THEM AND THEIR USES AS ANTI-APOPTOTIC INHIBITORS” (LES LABORATOIRES SERVIER, priority 2021, published 2024).

Broadly, the Ki is the equilibrium dissociation constant of an inhibitor or competing ligand from its target.

Sequence of Cy5-labelled Mcl1 (amino acids 171-321) C286S protein (Q07820 171-321 C286S): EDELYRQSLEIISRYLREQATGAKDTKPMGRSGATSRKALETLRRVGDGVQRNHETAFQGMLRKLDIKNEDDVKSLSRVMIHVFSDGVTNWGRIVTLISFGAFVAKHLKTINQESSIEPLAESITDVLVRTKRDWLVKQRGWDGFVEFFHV

On to `O=C(O)[C@]1(Nc2cccc(Cl)c2)CC[C@@]2(CC1)c1ccccc1CC2CC(F)(F)COc1ccnc2c1CCC2` (stereo partly drawn) [Example 503, (1r,4r)-4-(3-chloroanilino)-2′-{3-[(6,7-dihydro-5H-cyclopenta[b]pyridin-4-yl)oxy]-2,2-difluoropropyl}-2′,3′-dihydrospiro[cyclohexane-1,1′-indene]-4-carboxylic acid], for which the Ki was 63.8 nM. For `CC[C@@H](COc1ccnc2ccsc12)C[C@H]1Cc2ccccc2[C@]12CC[C@@](Nc1cccc(Cl)c1)(C(=O)O)CC2` [Example 538, (1r,2′S,4S)-4-(3-chloroanilino)-2′-[(2R)-2-{[(thieno[3,2-b]pyridin-7-yl)oxy]methyl}butyl]-2′,3′-dihydrospiro[cyclohexane-1,1′-indene]-4-carboxylic acid], the inhibition constant (Ki) was found to be 9.15 nM. The same measure, in the same setting: for `CC[C@@H](COc1ccnc2ccsc12)C[C@@H]1Cc2ccccc2[C@]12CC[C@@](Nc1cccc(Cl)c1)(C(=O)O)CC2` [Example 539, (1r,2′R,4R)-4-(3-chloroanilino)-2′-[(2R)-2-{[(thieno[3,2-b]pyridin-7-yl)oxy]methyl}butyl]-2′,3′-dihydrospiro[cyclohexane-1,1′-indene]-4-carboxylic acid] the value was 25.4 nM; for `CC[C@H](COc1ccncc1)C[C@@H]1Cc2ccccc2[C@]12CC[C@@](Nc1cccc(Cl)c1)(C(=O)O)CC2` [Example 543, (1r,2′R,4R)-4-(3-chloroanilino)-2′-[(2S)-2-{[(pyridin-4-yl)oxy]methyl}butyl]-2′,3′-dihydrospiro[cyclohexane-1,1′-indene]-4-carboxylic acid], 126 nM; for `CC(C)(C)OC(=O)N1CCC(CC2=Cc3ccccc3[C@]23CC[C@@](Nc2cccc(Cl)c2)(C(=O)O)CC3)CC1` [Example 558, (1r,4r)-2′-{[1-(tert-butoxycarbonyl)piperidin-4-yl]methyl}-4-(3-chloroanilino)spiro[cyclohexane-1,1′-indene]-4-carboxylic acid], 549 nM. Consider `C[C@@H](CNc1ccncc1)C[C@@H]1Cc2ccccc2[C@]12CC[C@@](Nc1cccc(Cl)c1)(C(=O)O)CC2` [Example 574, (1r,2′R,4R)-4-(3-chloroanilino)-2′-{(2R)-2-methyl-3-[(pyridin-4-yl)amino]propyl}-2′,3′-dihydrospiro[cyclohexane-1,1′-indene]-4-carboxylic acid], for which the inhibition constant Ki is 221 nM.

Take `CCc1cnccc1OC[C@H](C)C[C@H]1Cc2ccccc2[C@]12CC[C@@](Nc1cccc(Cl)c1)(C(=O)O)CC2` [Example 588, (1r,2′S,4S)-4-(3-chloroanilino)-2′-{(2R)-3-[(3-ethylpyridin-4-yl)oxy]-2-methylpropyl}-2′,3′-dihydrospiro[cyclohexane-1,1′-indene]-4-carboxylic acid]: the Ki is 2.68 nM. Same read-out and setting: for `C[C@@H](COc1cccc2[nH]ccc12)CC1Cc2ccccc2[C@]12CC[C@@](Nc1cccc(Cl)c1)(C(=O)O)CC2` (stereo partly drawn) [Example 594, (1r,4R)-4-(3-chloroanilino)-2′-{(2R)-3-[(1H-indol-4-yl)oxy]-2-methylpropyl}-2′,3′-dihydrospiro[cyclohexane-1,1′-indene]-4-carboxylic acid] the value was 44.1 nM; for `C[C@H](C[C@H]1Cc2ccccc2[C@]12CC[C@@](Nc1cccc(Cl)c1)(C(=O)O)CC2)[C@@H](C)Oc1ccnc2c1CCC2` [Example 616, (1r,2′S,4S)-4-(3-chloroanilino)-2′-{(2R,3R)-3-[(6,7-dihydro-5H-cyclopenta[b]pyridin-4-yl)oxy]-2-methylbutyl}-2′,3′-dihydrospiro[cyclohexane-1,1′-indene]-4-carboxylic acid], 12.1 nM. In the case of `C[C@@H](COc1ccnc2c1CCC2(C)O)C[C@H]1Cc2ccccc2[C@]12CC[C@@](Nc1cccc(Cl)c1)(C(=O)O)CC2` (stereo partly drawn) [Example 618, (1r,2′S,4S)-4-(3-chloroanilino)-2′-{(2R)-3-[(7-hydroxy-7-methyl-6,7-dihydro-5H-cyclopenta[b]pyridin-4-yl)oxy]-2-methylpropyl}-2′,3′-dihydrospiro[cyclohexane-1,1′-indene]-4-carboxylic acid], the Ki turned out to be 42.6 nM.

With `C[C@@H](COc1ccnc2c1CCCCC2)CC1=Cc2ccccc2[C@]12CC[C@@](Nc1cccc(Cl)c1)(C(=O)O)CC2` [Example 632, (1r,4R)-4-(3-chloroanilino)-2′-{(2R)-2-methyl-3-[(6,7,8,9-tetrahydro-5H-cyclohepta[b]pyridin-4-yl)oxy]propyl}spiro[cyclohexane-1,1′-indene]-4-carboxylic acid], the Ki worked out at 6.01 nM. On the same count and under the same terms, for `Cc1cnc2c(c1OC[C@H](C)C[C@H]1Cc3ccccc3[C@]13CC[C@@](Nc1cccc(Cl)c1)(C(=O)O)CC3)CCCC2` [Example 649, (1r,2′S,4S)-4-(3-chloroanilino)-2′-{(2R)-2-methyl-3-[(3-methyl-5,6,7,8-tetrahydroquinolin-4-yl)oxy]propyl}-2′,3′-dihydrospiro[cyclohexane-1,1′-indene]-4-carboxylic acid] the value was 6.36 nM. Take `Cc1cc(C(C)O)cc2c1CC(C[C@@H](C)COc1ccnc3c1[C@H](C)CCC3)[C@]21CC[C@](Nc2cccc(Cl)c2)(C(=O)O)CC1` (stereo partly drawn) [Example 761, (1r,4R)-4-(3-chloroanilino)-6′-(1-hydroxyethyl)-4′-methyl-2′-[(2R)-2-methyl-3-{[(5R)-5-methyl-5,6,7,8-tetrahydroquinolin-4-yl]oxy}propyl]-2′,3′-dihydrospiro[cyclohexane-1,1′-indene]-4-carboxylic acid]: the Ki amounted to 65.3 nM. Same read-out and setting: for `CC(C)COc1cc2c(cc1Cl)C[C@H](C[C@@H](C)COc1ccnc3c1[C@H](C)CCC3)[C@]21CC[C@](Nc2cccc(Cl)c2)(C(=O)O)CC1` [Example 820, (1r,2′S,4S)-5′-chloro-4-(3-chloroanilino)-2′-[(2R)-2-methyl-3-{[(5R)-5-methyl-5,6,7,8-tetrahydroquinolin-4-yl]oxy}propyl]-6′-(2-methylpropoxy)-2′,3′-dihydrospiro[cyclohexane-1,1′-indene]-4-carboxylic acid] the value was 0.469 nM. As to `COC(=O)[C@]1(Nc2cccc(Cl)c2)CC[C@@]2(CC1)c1cc3c(cc1C[C@@H]2C[C@@H](C)COc1ccnc2c1[C@H](C)CCC2)OCO3` [Example 839, methyl (1r,4S,6′S)-4-(3-chloroanilino)-6′-[(2R)-2-methyl-3-{[(5R)-5-methyl-5,6,7,8-tetrahydroquinolin-4-yl]oxy}propyl]-6′,7′-dihydro-2′H-spiro[cyclohexane-1,5′-indeno[5,6-d][1,3]dioxole]-4-carboxylate], the inhibition at 1 µM (@ 1 μM, read-out: Mcl-1 inhibition, % at a single concentration) stood at 11.1%.

`CC(C)OC(=O)[C@]1(Nc2cccc(Cl)c2)CC[C@@]2(CC1)c1cc3c(cc1C[C@@H]2C[C@@H](C)COc1ccnc2c1[C@H](C)CCC2)OCO3` [Example 931, propan-2-yl (1r,4S,6′S)-4-(3-chloroanilino)-6′-[(2R)-2-methyl-3-{[(5R)-5-methyl-5,6,7,8-tetrahydroquinolin-4-yl]oxy}propyl]-6′,7′-dihydro-2′H-spiro[cyclohexane-1,5′-indeno[5,6-d][1,3]dioxole]-4-carboxylate]: the inhibition at 10 µM (@ 10 μM, read-out: Mcl-1 inhibition, % at a single concentration) was determined as 9.5%. For `C[C@@H](COc1ccnc2c1[C@H](C)CCC2)C[C@H]1Cc2cc3c(cc2[C@]12CC[C@@](Nc1cccc(Cl)c1)(C(=O)Oc1ccc4c(c1)CCC4)CC2)OCO3` [Example 937, 2,3-dihydro-1H-inden-5-yl (1r,4S,6′S)-4-(3-chloroanilino)-6′-[(2R)-2-methyl-3-{[(5R)-5-methyl-5,6,7,8-tetrahydroquinolin-4-yl]oxy}propyl]-6′,7′-dihydro-2′H-spiro[cyclohexane-1,5′-indeno[5,6-d][1,3]dioxole]-4-carboxylate], the Ki came out at 28 nM. For the compound `C[C@@H](COc1ccnc2c1[C@H](C)CCC2)C[C@H]1Cc2cc3c(cc2[C@]12CC[C@@](Nc1cccc(Cl)c1)(C(=O)OCCCS(=O)(=O)O)CC2)OCO3` [Example 953, 3-({(1r,4S,6′S)-4-(3-chloroanilino)-6′-[(2R)-2-methyl-3-{[(5R)-5-methyl-5,6,7,8-tetrahydroquinolin-4-yl]oxy}propyl]-6′,7′-dihydro-2′H-spiro[cyclohexane-1,5′-indeno[5,6-d][1,3]dioxole]-4-carbonyl}oxy)propane-1-sulfonic acid], the Ki was determined as 55.6 nM.
